This experiment concerns mouse organs. The experiment is described as follows: In vivo activity screening in mice: organ mean total flux (p/s) of luciferase activity after injection of F2 LNP pools (Table 6, FIG. 7A-7C). Particulars: luciferase mRNA. As to the method: Small rodent biodistribution studies were performed in mice (e.g., C57BL/6J, Balb-c, CD-1, etc.). For evaluating LNP biodistribution and tissue activity upon systemic administration, C57BL/6J mice received dose administration by single intravenous injection via tail vein with LNP formulations (individual or pooled) in PBS, at different dose (0.25-3 mg/kg) levels of firefly luciferase mRNA. At predetermined time points (4-6 hours post-injection), the animals were anesthetized via isoflurane and subjected to in-life imaging sessions for bioluminescence using an In Vivo Imaging System (IVIS). All animals were dosed with D-Luciferin at 15 mg/mL via subcutaneous (SC) injection at 0.2 mL/animal. Animals had their abdomen hair shaved using an animal trimmer. They were then placed so their shaved belly faced up toward the IVIS camera. Whole body imaging sessions were performed 10-15 minutes following D-Luciferin administration.
For in detail organ distribution and activity of LNP formulations, ex vivo imaging sessions were also performed. All animals received SC D-Luciferin and were then euthanized by isoflurane overdose, followed by cardiac perfusion with saline. Following perfusion, the organs were collected and subjected to IVIS imaging for luminescence within 10-15 minutes of D-Luciferin injection.
All IVIS images were processed with a computer software to identify the regions of interests for individual organs to detect the total flux (p/s) values as luminescence quantification. Then the total flux values were graphed to evaluate the in vivo activity in each collected organ.
Small rodent biodistribution studies were performed in mice according to the General Study Protocols in Example 3(a). LNPs incorporating lipid compounds were prepared in Formulation F2, with MC3 as lipid compound (Cayman Chemical) prepared using Formulation F2 for comparison. LNP pools (with firefly luciferase mRNA encapsulated) were injected into mice at varying doses, and organ mean total flux (p/s) results (measuring luciferase activity) were then collected according to Example 3(a).
LNPs comprising MC3 used as a control and for cross-mouse comparison. Dose is in mg/kg; LC is Lipid Compound according to Table 1.
Additional screening results for Compounds 7, 13, 14, 26, 33, 38, 39, 40, 48, 60, 61, 89, 103, and 109 in spleen, femur, and muscle are shown in FIG. 7A, FIG. 7B, and FIG. 7C, with MC3 as a used as a control for comparison.

Here are results for eight compounds from patent publication US20260234115A1, “LIPID COMPOUNDS, COMPOSITIONS, AND USES THEREOF” (Liberate Bio, Inc., priority 2023, published 2026).

Marks after values point to notes of the source that are not given here.

For `CCCCC/C=C\CCOC(=O)CCCCC(=O)OCC(COC(=O)CCCCC(=O)OCC/C=C\CCCCC)(COC(=O)CCC(CCCC)CCOC(=O)NCCN1CCCC1)COC(=O)CC12CC3CC(CC(C3)C1)C2` (centres unmarked) [Compound 61, O6-[2-[[2-(1-adamantyl)acetyl]oxymethyl]-2-[[6-[(Z)-non-3-enoxy]-6-oxo-hexanoyl]-oxymethyl]-3-[4-[2-(2-pyrrolidin-1-ylethylcarbamoyloxy)ethyl]octanoyloxy]propyl]O1-[(Z)-non-3-enyl]hexanedioate], where the note is “Mouse 2, dose 1.0 mg/kg”, the “Organ Mean Total Flux Femur” value is on record as 34.2 p/s (×10^6), the “Organ Mean Total Flux Heart” value is listed as 1.9 p/s (×10^6), the “Organ Mean Total Flux Kidney” value is 4.8 p/s (×10^6) and the “Organ Mean Total Flux Liver” value is on record as 542.7 p/s (×10^6). For the setting “Mouse 2, dose 1.0 mg/kg”, the “Organ Mean Total Flux Lung” value was 123.9 p/s (×10^6), the “Organ Mean Total Flux Muscle” value was 28.1 p/s (×10^6), the “Organ Mean Total Flux Pancreas” value is recorded as 28.8 p/s (×10^6) and the “Organ Mean Total Flux Spleen” value is on record as 85.1 p/s (×10^6). Under “Mouse 14, dose 0.5 mg/kg”, the “Organ Mean Total Flux Femur” value is 16.6 p/s (×10^6), the “Organ Mean Total Flux Heart” value is on record as 1.0 p/s (×10^6), the “Organ Mean Total Flux Kidney” value was 5.0 p/s (×10^6) and the “Organ Mean Total Flux Liver” value is 157.3 p/s (×10^6). Under “Mouse 14, dose 0.5 mg/kg”, the “Organ Mean Total Flux Lung” value is 33.8 p/s (×10^6), the “Organ Mean Total Flux Muscle” value was 11.1 p/s (×10^6), the “Organ Mean Total Flux Pancreas” value was 51.6 p/s (×10^6) and the “Organ Mean Total Flux Spleen” value was 109.9 p/s (×10^6).
Turning to `CCCCCCC(CCC(=O)OCC(COC(=O)CCCCCC(=O)OCCC(CCCCC)CCCCC)(COC(=O)CCCCCC(=O)OCCC(CCCCC)CCCCC)COC(=O)CCCCCC(=O)OCCC(CCCCC)CCCCC)OC(=O)NCCN1CCCC1` (centres unmarked) [Compound 52], where the note is “Mouse 3, dose 1.0 mg/kg”, the “Organ Mean Total Flux Femur” value is 6.0 p/s (×10^6), the “Organ Mean Total Flux Heart” value was 9.0 p/s (×10^6), the “Organ Mean Total Flux Kidney” value is listed as 8.4 p/s (×10^6) and the “Organ Mean Total Flux Liver” value is 12143 p/s (×10^6). In addition, under “Mouse 3, dose 1.0 mg/kg”, the “Organ Mean Total Flux Lung” value is 56.0 p/s (×10^6), the “Organ Mean Total Flux Muscle” value is 15.1 p/s (×10^6), the “Organ Mean Total Flux Pancreas” value is reported as 4.7 p/s (×10^6) and the “Organ Mean Total Flux Spleen” value is 6.1 p/s (×10^6).
On to `CCCCCCCCCC(C)OC(=O)CCCCCC(=O)OCC(COC(=O)CCCCCC(=O)OC(C)CCCCCCCCC)(COC(=O)CCCCCC(=O)OC(C)CCCCCCCCC)COC(=O)CCC(CCCCCC)OC(=O)NCCN1CCCC1` (centres unmarked) [Compound 42, O1-[2,2-bis[[7-(1-methyldecoxy)-7-oxo-heptanoyl]oxymethyl]-3-[4-(2-pyrrolidin-1-ylethylcarbamoyloxy)decanoyloxy]propyl]O7-(1-methyldecyl) heptanedioate], for which, where the note is “Mouse 5, dose 0.5 mg/kg”, the “Organ Mean Total Flux Femur” value is recorded as 6.2 p/s (×10^6), the “Organ Mean Total Flux Heart” value is 1.7 p/s (×10^6), the “Organ Mean Total Flux Kidney” value is listed as 1.9 p/s (×10^6) and the “Organ Mean Total Flux Liver” value is listed as 1778 p/s (×10^6). For the same compound, where the note is “Mouse 5, dose 0.5 mg/kg”, the “Organ Mean Total Flux Lung” value is on record as 13.4 p/s (×10^6), the “Organ Mean Total Flux Muscle” value is listed as 25.8 p/s (×10^6), the “Organ Mean Total Flux Pancreas” value is recorded as 1.8 p/s (×10^6) and the “Organ Mean Total Flux Spleen” value was 4.5 p/s (×10^6).
With `CCCCCCC(CCC(=O)OCC(COC(=O)CCCCCCOC(=O)C(CCCC)CCCCCC)(COC(=O)CCCCCCOC(=O)C(CCCC)CCCCCC)COC(=O)CC12CC3CC(CC(C3)C1)C2)OC(=O)NCCN1CCCC1` (centres unmarked) [Compound 57, [7-[2-[[2-(1-adamantyl)acetyl]oxymethyl]-2-[7-(2-butyloctanoyloxy)heptanoyloxymethyl]-3-[4-(2-pyrrolidin-1-ylethylcarbamoyloxy)decanoyloxy]propoxy]-7-oxo-heptyl]2-butyloctanoate], where the note is “Mouse 3, dose 1.0 mg/kg”, the “Organ Mean Total Flux Femur” value was 7.4 p/s (×10^6), the “Organ Mean Total Flux Heart” value is on record as 16.1 p/s (×10^6), the “Organ Mean Total Flux Kidney” value is reported as 11.4 p/s (×10^6) and the “Organ Mean Total Flux Liver” value is 25033 p/s (×10^6). In addition, under “Mouse 3, dose 1.0 mg/kg”, the “Organ Mean Total Flux Lung” value is reported as 71.8 p/s (×10^6), the “Organ Mean Total Flux Muscle” value was 16.4 p/s (×10^6), the “Organ Mean Total Flux Pancreas” value was 2.7 p/s (×10^6) and the “Organ Mean Total Flux Spleen” value is listed as 6.5 p/s (×10^6).
As for `CCCCC/C=C\CCOC(=O)CCCCCC(=O)OCC(COC(=O)CCCCCC(=O)OCC/C=C\CCCCC)(COC(=O)CCCCCC(=O)OCC/C=C\CCCCC)COC(=O)CCC(CCCCCCCC)OC(=O)NCCN1CCCC1` (centres unmarked) [Compound 28, O7-[2,2-bis[[7-[(Z)-non-3-enoxy]-7-oxo-heptanoyl]oxymethyl]-3-[4-(2-pyrrolidin-1-ylethylcarbamoyloxy)dodecanoyloxy]propyl]O1-[(Z)-non-3-enyl]heptanedioate], under “Mouse 6, dose 0.5 mg/kg”, the “Organ Mean Total Flux Femur” value is on record as 3.5 p/s (×10^6), the “Organ Mean Total Flux Heart” value was 0.5 p/s (×10^6), the “Organ Mean Total Flux Kidney” value is on record as 0.9 p/s (×10^6) and the “Organ Mean Total Flux Liver” value is 278.3 p/s (×10^6). Also, where the note is “Mouse 6, dose 0.5 mg/kg”, the “Organ Mean Total Flux Lung” value is given as 10.4 p/s (×10^6), the “Organ Mean Total Flux Muscle” value is given as 11.6 p/s (×10^6), the “Organ Mean Total Flux Pancreas” value is on record as 0.8 p/s (×10^6) and the “Organ Mean Total Flux Spleen” value was 3.5 p/s (×10^6).
Regarding `CCCC/C=C\CCOC(=O)CCCCCCC(=O)OCC(COC(=O)CCCCCCC(=O)OCC/C=C\CCCC)(COC(=O)CCCCCCC(=O)OCC/C=C\CCCC)COC(=O)CCC(CCCCCC)OC(=O)NCCN1CCCC1` (centres unmarked) [Compound 43, O8-[2,2-bis[[8-[(Z)-oct-3-enoxy]-8-oxo-octanoyl]oxymethyl]-3-[4-(2-pyrrolidin-1-ylethylcarbamoyloxy)decanoyloxy]propyl]O1-[(Z)-oct-3-enyl]octanedioate], under “Mouse 5, dose 0.5 mg/kg”, the “Organ Mean Total Flux Femur” value is 3.1 p/s (×10^6), the “Organ Mean Total Flux Heart” value is recorded as 0.7 p/s (×10^6), the “Organ Mean Total Flux Kidney” value was 1.6 p/s (×10^6) and the “Organ Mean Total Flux Liver” value is 669.3 p/s (×10^6). Further, where the note is “Mouse 5, dose 0.5 mg/kg”, the “Organ Mean Total Flux Lung” value is on record as 12.8 p/s (×10^6), the “Organ Mean Total Flux Muscle” value was 8.0 p/s (×10^6), the “Organ Mean Total Flux Pancreas” value is recorded as 2.0 p/s (×10^6) and the “Organ Mean Total Flux Spleen” value is given as 9.5 p/s (×10^6).
As to `CCCCC/C=C\CCOC(=O)CCCCCC(=O)OCC(COC(=O)CCCCCC(=O)OCC/C=C\CCCCC)(COC(=O)CCCCCC(=O)OCC/C=C\CCCCC)COC(=O)CCC(CCCC)OC(=O)NCCN1CCCC1` (centres unmarked) [Compound 26, O7-[2,2-bis[[7-[(Z)-non-3-enoxy]-7-oxo-heptanoyl]oxymethyl]-3-[4-(2-pyrrolidin-1-ylethylcarbamoyloxy)octanoyloxy]propyl]O1-[(Z)-non-3-enyl]heptanedioate], where the note is “Mouse 11, dose 0.5 mg/kg”, the “Organ Mean Total Flux Femur” value is 20.0 p/s (×10^6), the “Organ Mean Total Flux Heart” value was 1.2 p/s (×10^6), the “Organ Mean Total Flux Kidney” value is listed as 4.4 p/s (×10^6) and the “Organ Mean Total Flux Liver” value is given as 481.0 p/s (×10^6). Under “Mouse 11, dose 0.5 mg/kg”, the “Organ Mean Total Flux Lung” value is 26.9 p/s (×10^6), the “Organ Mean Total Flux Muscle” value was 6.2 p/s (×10^6), the “Organ Mean Total Flux Pancreas” value is 8.2 p/s (×10^6) and the “Organ Mean Total Flux Spleen” value is on record as 152.7 p/s (×10^6).
For the compound `CCCCCCCCCOC(=O)CCCCC(=O)OCC(COC(=O)CCCCC(=O)OCCCCCCCCC)(COC(=O)CCCCC(=O)OCCCCCCCCC)COC(=O)CCC(CCCCCC)OC(=O)NCCN1CCCC1` (centres unmarked) [Compound 50, O6-[2,2-bis[(6-nonoxy-6-oxo-hexanoyl)oxymethyl]-3-[4-(2-pyrrolidin-1-ylethylcarbamoyloxy)decanoyloxy]propyl]O1-nonyl hexanedioate], where the note is “Mouse 3, dose 1.0 mg/kg”, the “Organ Mean Total Flux Femur” value was 3.8 p/s (×10^6), the “Organ Mean Total Flux Heart” value is 3.1 p/s (×10^6), the “Organ Mean Total Flux Kidney” value is reported as 2.1 p/s (×10^6) and the “Organ Mean Total Flux Liver” value is given as 2413 p/s (×10^6). Besides, where the note is “Mouse 3, dose 1.0 mg/kg”, the “Organ Mean Total Flux Lung” value is on record as 12.1 p/s (×10^6), the “Organ Mean Total Flux Muscle” value is listed as 3.8 p/s (×10^6), the “Organ Mean Total Flux Pancreas” value is reported as 8.8 p/s (×10^6) and the “Organ Mean Total Flux Spleen” value is 9.0 p/s (×10^6). Under “Mouse 13, dose 0.5 mg/kg”, the “Organ Mean Total Flux Femur” value is given as 1.2 p/s (×10^6), the “Organ Mean Total Flux Heart” value was 1.0 p/s (×10^6), the “Organ Mean Total Flux Kidney” value is on record as 0.7 p/s (×10^6) and the “Organ Mean Total Flux Liver” value is listed as 569.7 p/s (×10^6). Under “Mouse 13, dose 0.5 mg/kg”, the “Organ Mean Total Flux Lung” value is reported as 4.7 p/s (×10^6), the “Organ Mean Total Flux Muscle” value is recorded as 2.3 p/s (×10^6), the “Organ Mean Total Flux Pancreas” value was 1.5 p/s (×10^6) and the “Organ Mean Total Flux Spleen” value is on record as 4.7 p/s (×10^6).
